The results in this text go back to US20250214951A1, “3-PHENYLISOXAZOLE DERIVATIVE, AND PHARMACEUTICAL COMPOSITION FOR PREVENTING OR TREATING EYE DISEASE, CONTAINING SAME AS ACTIVE INGREDIENT” (VASTHERA CO., LTD., priority 2022, published 2025).

Bounds are passed on as bounds.

The subject of experiment [1] is A2E-BDP in ARPE-19 cells. Put plainly: A2E-BDP removal ability by concentration of other example compounds. It is filed as cell-based, human. Particulars: indicated concentrations; FIG. 13. The protocol: (§1) The human retinal pigment epithelial cell line (ARPE-19) used in the experiment was provided by ATCC (American Type Culture Collection). The ARPE-19 cell line was cultured in DMEM medium containing 10% FBS. After culture, the cells were dispensed into 96-well plates at a concentration of 4×10^3 cells/well and cultured for 24 hours. The ARPE-19 cell line was treated with A2E-fluorescent labeling substance (A2E-BDP) at a concentration of 10 μM for 24 hours to induce the accumulation of A2E-BDP in the ARPE-19 cell line.
(§2) In order to evaluate the intracellular A2E removal ability of the compound of the present invention, an easily detectable A2E-fluorescent labeling substance (A2E-BDP) was used. The ARPE-19 cells prepared by the above method were treated with each test compound at a concentration of 50 μM once, and then cultured for 24 hours. The cells were lysed by adding a cell lysis buffer containing a protease inhibitor (50 mM Tris-chloride, pH 8.0, 150 mM sodium chloride, 1% NP-40, 1% sodium deoxycholate, 1% sodium dodecyl sulfate, and 2 mM ethylenediamine tetraacetic acid) to each 96-well. The prepared cell lysate was transferred to a white 96-well plate, and the fluorescence intensity was measured using a fluorescence microplate reader (VICTOR™ X3, Perkin Elmer, USA) (excitation 485 nm, emission 535 nm).
The A2E-fluorescent labeling substance (A2E-BDP) removal ability was evaluated according to Experimental Example 1 (except that the test compound was treated at the indicated concentration).

Experiment [2] has as its system p62 protein phosphorylated at serine 349 (p-p62 (S349)). Put plainly: Autophagy activation by increase of p-p62 (S349), Western immunoblotting. Format: cell-based, human. Particulars: indicated concentrations; FIG. 14. The protocol:
The cells were treated with the test compounds at the indicated concentrations, and the autophagy activation effect through the increase of p62 protein (p-p62 (S349)) phosphorylated at serine 349 residue was measured by Western immunoblotting using an anti-p-p62 antibody, and the results are shown in FIG. 14. The increase in the intracellular P-p62 ([…]) level is one of the major indicators of autophagy activation.

The subject of experiment [3] is A2E-BDP present in human retinal pigment epithelial cells (ARPE-19). The experiment can be described thus: Screening of ability to remove A2E-fluorescent labeling substance (A2E-BDP), lysate fluorescence. Format: cell-based. Particulars: ARPE-19, 24 h, ARPE-19 loaded with 10 μM A2E-BDP 24 h, test compound 50 μM once, fluorescence ex 485/em 535 nm, read-out: Capacity (%) to remove A2E-BDP at 50 μM. The protocol: as §1, §2

The test system of experiment [4] is LC3-II. Put plainly: Concentration-dependent autophagy activation through increase of LC3-II (FIGS. 15 and 16). It is filed as cell-based, human. On the procedure: (§3) ARPE-19 was dispensed into a 6-well plate at a concentration of 1×10^5 cells/well and cultured for 24 hours. Then, cells were treated with example 17 compound of the present invention at concentrations of 10, 25, and 50 μM for 12 hours. Then, a cell lysis buffer containing a protease inhibitor was added to prepare a cell lysate. The LC3-II level was measured by Western immunoblotting using an anti-LC3-II antibody (Cell Signaling Technology, MA, USA). As an internal control, an antibody against β-actin (Cell Signaling Technology) was used and measured by Western immunoblotting in the same manner as above, and is shown in FIG. 6 (upper graph).
(§4) The autophagy activation effect of example compounds expected to have autophagy activation ability and low cytotoxicity among the example compounds in Table 2 above in human retinal pigment epithelial cells was evaluated according to Experimental Example 7. That is, the autophagy activation effect through the increase of LC3-II was evaluated in a concentration-dependent manner, and the results are shown in FIGS. 15 and 16.

Experiment [5] concerns LC3-II. The experiment can be described thus: LC3-II production capacity at 10 μM (Table 4). It is filed as cell-based. Particulars: Homo sapiens, 12 h. On the procedure:
as §3, §4

As for `C=CCc1ccc(OC)c(-c2cc(COCc3ccccc3)on2)c1` [Example 18, 3-(5-allyl-2-methoxyphenyl)-5-((benzyloxy)methyl)isoxazole], the “A2E-BDP removal ability by concentration (amount of A2E)” value (from here on “A2E-BDP removal ability”) in experiment [1] is “concentration-dependent decrease in the amount of A2E”. The “autophagy activation through increase of p-p62 (S349)” value in experiment [2] is “activated autophagy in a concentration-dependent manner”. Also, the inhibition at 50 µM in experiment [3] is not below 60%.

For `COc1ccc(C(C)C)cc1-c1cc(CN2CCNCC2)on1` [Example 47, 3-(5-isopropyl-2-methoxyphenyl)-5-(piperazine-1-ylmethyl)isoxazole], the “autophagy activation effect through the increase of LC3-II” value in experiment [4] was “excellent autophagy activation effects”. Moreover, in experiment [5], the fold induction at 10 µM is 2.7.

With `COc1ccc(Br)cc1-c1cc(COCc2ccccc2)on1` [Example 11, 5-((benzyloxy)methyl)-3-(5-bromo-2-methoxyphenyl)isoxazole], the “A2E-BDP removal ability” value in experiment [1] is “concentration-dependent decrease in the amount of A2E”. Besides, the “autophagy activation through increase of p-p62 (S349)” value in experiment [2] is “activated autophagy in a concentration-dependent manner”. Moreover, the inhibition at 50 µM in experiment [3] was not below 60%.

On to `COc1ccc(Br)cc1-c1cc(CN2CCN(C(=O)OC(C)(C)C)CC2)on1` [Example 21, tert-butyl 4-((3-(5-bromo-2-methoxyphenyl)isoxazole-5-yl)methyl)piperazine-1-carboxylate], for which the “A2E-BDP removal ability” value in experiment [1] is “concentration-dependent decrease in the amount of A2E”. In experiment [2], the “autophagy activation through increase of p-p62 (S349)” value is recorded as “activated autophagy in a concentration-dependent manner”. In addition, the inhibition at 50 µM in experiment [3] was not below 60%.

In the case of `C=CCc1ccc(OC)c(-c2cc(CN3CCN(CC(=O)OCC)CC3)on2)c1` [Example 24, ethyl 2-(4-((3-(5-allyl-2-methoxyphenyl)isoxazole-5-yl)methyl)piperazine-1-yl)acetate], the inhibition at 50 µM in experiment [3] was found to be 38.5%.

Regarding `CCCc1ccc(OC)c(-c2cc(CN3CCN(C)CC3)on2)c1` [Example 42, 3-(2-methoxy-5-propylphenyl)-5-((4-methylpiperazine-1-yl)methyl)isoxazole], the “autophagy activation effect through the increase of LC3-II” value in experiment [4] was “excellent autophagy activation effects”. This compound had a fold induction at 10 µM in experiment [5] of 2.3.

On to `CCCc1cc(-c2cc(CN3CCNCC3)on2)c(OC)cc1F` [Example 58, 3-(4-fluoro-2-methoxy-5-propylphenyl)-5-(piperazine-1-ylmethyl)isoxazole], for which the “autophagy activation effect through the increase of LC3-II” value in experiment [4] was “excellent autophagy activation effects”. Moreover, the fold induction at 10 µM in experiment [5] came out at 3.2.

In the case of `C=CCc1ccc(OC)c(-c2cc(CN3CCN(CC=C)CC3)on2)c1` [Example 22, 3-(5-allyl-2-methoxyphenyl)-5-((4-allylpiperazine-1-yl)methyl)isoxazole], the inhibition at 50 µM in experiment [3] amounted to 47.4%.

For `C=CCc1ccc(OC)c(-c2cc(COCC(=O)OCC)on2)c1` [Example 19, ethyl 2-((3-(5-allyl-2-methoxyphenyl)isoxazole-5-yl)methoxy)acetate], the inhibition at 50 µM in experiment [3] came out at 37.4%.

For `C=CCOCc1cc(-c2cc(Br)ccc2OC)no1` [Example 9, 5-((allyloxy)methyl)-3-(5-bromo-2-methoxyphenyl)isoxazole], the inhibition at 50 µM in experiment [3] came out at 26.2%.

For `C=CCc1ccc(OC)c(-c2cc(CN3CCN(Cc4ccccc4)CC3)on2)c1` [Example 23, 3-(5-allyl-2-methoxyphenyl)-5-((4-benzylpiperazine-1-yl)methyl)isoxazole], the inhibition at 50 µM in experiment [3] came to 45.5%.

As for `C=CCc1ccc(O)c(-c2cc(CCC)on2)c1` [Example 5, 4-allyl-2-(5-propylisoxazole-3-yl)phenol], in experiment [3], the inhibition at 50 µM stood at 26.9%.

For `C=CCc1ccc(OC)c(-c2cc(CN3CCN(C)CC3)on2)c1` [Example 41, 3-(5-allyl-2-methoxyphenyl)-5-((4-methylpiperazine-1-yl)methyl)isoxazole], in experiment [4], the “autophagy activation effect through the increase of LC3-II” value is recorded as “excellent autophagy activation effects”. The compound also had a fold induction at 10 µM in experiment [5] of 2.3.

As to `C=CCc1ccc(OC)c(-c2cc(CCC)on2)c1` [Example 4, 3-(5-allyl-2-methoxyphenyl)-5-propylisoxazole], in experiment [3], the inhibition at 50 µM was 24.7%.

For the compound `C=CCc1ccc(O)c(-c2cc(CO)on2)c1` [Example 16, 4-allyl-2-(5-(hydroxymethyl)isoxazole-3-yl)phenol], the inhibition at 50 µM in experiment [3] was 49.9%.

On to `CCCc1ccc(OC)c(-c2cc(CO)on2)c1` [Example 10, (3-(2-methoxy-5-propylphenyl)isoxazole-5-yl)methanol], for which the inhibition at 50 µM in experiment [3] is 7.7%.

Regarding `COCc1cc(-c2cc(Br)ccc2OC)no1` [Example 13, 3-(5-bromo-2-methoxyphenyl)-5-(methoxymethyl)isoxazole], the inhibition at 50 µM in experiment [3] turned out to be 31%.

Turning to `CCCc1ccc(OC)c(-c2cc(CCC)on2)c1` [Example 3, 3-(2-methoxy-5-propylphenyl)-5-propylisoxazole], in experiment [3], the inhibition at 50 µM came out at 0.6%.

With `OCc1cc(-c2cc(Br)ccc2O)no1` [Example 8, 4-bromo-2-(5-(hydroxymethyl)isoxazole-3-yl)phenol], the inhibition at 50 µM in experiment [3] is -15.3%.

With `CCCc1ccc(OC)c(-c2cc(CN3CCNCC3)on2)c1` [Example 30, 3-(2-methoxy-5-propylphenyl)-5-(piperazine-1-ylmethyl)isoxazole], the “autophagy activation effect through the increase of LC3-II” value in experiment [4] is listed as “excellent autophagy activation effects”. Besides, the fold induction at 10 µM in experiment [5] worked out at 2.3.

Consider `C=CCc1ccc(OC)c(-c2cc(CN3CCN(C(=O)OC(C)(C)C)CC3)on2)c1` [Example 25, tert-butyl 4-((3-(5-allyl-2-methoxyphenyl)isoxazole-5-yl)methyl)piperazine-1-carboxylate], for which the inhibition at 50 µM in experiment [3] was 45.9%.

In the case of `CCCc1cc(-c2cc(Br)ccc2O)no1` [Example 2, 4-bromo-2-(5-propylisoxazole-3-yl)phenol], the inhibition at 50 µM in experiment [3] was determined as 28.2%.

For `COc1ccc(C(F)(F)F)cc1-c1cc(CN2CCNCC2)on1` [Example 34, 3-(2-methoxy-5-(trifluoromethyl)phenyl)-5-(piperazine-1-ylmethyl)isoxazole], the “autophagy activation effect through the increase of LC3-II” value in experiment [4] is reported as “excellent autophagy activation effects”. In addition, the fold induction at 10 µM in experiment [5] stood at 2.5.

On to `CCCc1ccc(OC(F)(F)F)c(-c2cc(CN3CCN(C)CC3)on2)c1` [Example 60, 5-((4-methylpiperazine-1-yl)methyl)-3-(5-propyl-2-(trifluoromethoxy)phenyl)isoxazole], for which, in experiment [4], the “autophagy activation effect through the increase of LC3-II” value was “excellent autophagy activation effects”. Moreover, in experiment [5], the fold induction at 10 µM amounted to 3.1.

`CCCc1cc(-c2cc(CN3CCN(C)CC3)on2)c(OC)cc1F` [Example 59, 3-(4-fluoro-2-methoxy-5-propylphenyl)-5-((4-methylpiperazine-1-yl)methyl)isoxazole]: in experiment [4], the “autophagy activation effect through the increase of LC3-II” value is “excellent autophagy activation effects”. The compound further gave a fold induction at 10 µM in experiment [5] of 3.1.

As to `COc1ccc(Br)cc1-c1cc(CO)on1` [Example 7, (3-(5-bromo-2-methoxyphenyl)isoxazole-5-yl)methanol], the inhibition at 50 µM in experiment [3] came out at 16.6%.

`CCCc1ccc(O)c(-c2cc(CO)on2)c1` [Example 14, 2-(5-(hydroxymethyl)isoxazole-3-yl)-4-propylphenol]: the inhibition at 50 µM in experiment [3] worked out at 35.2%.

Consider `C=CCc1ccc(OC)c(-c2cc(CO)on2)c1` [Example 15, (3-(5-allyl-2-methoxyphenyl)isoxazole-5-yl)methanol], for which, in experiment [3], the inhibition at 50 µM came out at 48.1%.

For the compound `COc1ccc(Br)cc1-c1cc(CN2CCNCC2)on1` [Example 28, 3-(5-bromo-2-methoxyphenyl)-5-(piperazine-1-ylmethyl)isoxazole], the “autophagy activation effect through the increase of LC3-II” value in experiment [4] is “excellent autophagy activation effects”. In addition, the fold induction at 10 µM in experiment [5] was 4.6.
